Experimental data as given in BindingDB's records for doi:10.1021/np50113a004 (1994).

Experiments:
[1] = Inhibition of LFA1 expressed in human JY cells interaction with ICAM1-IG expressed in human HeLa cell monolayer after 45 mins by cell adhesion assay
Integrin alpha-L = biological target: T1, Integrin alpha-L (Homo sapiens, UniProt P20701); assay: Inhibition of LFA1 expressed in human JY cells interaction with ICAM1-IG expressed in human HeLa cell monolayer after 45 mins by cell adhesion assay
T1 sequence (P20701 whole entry): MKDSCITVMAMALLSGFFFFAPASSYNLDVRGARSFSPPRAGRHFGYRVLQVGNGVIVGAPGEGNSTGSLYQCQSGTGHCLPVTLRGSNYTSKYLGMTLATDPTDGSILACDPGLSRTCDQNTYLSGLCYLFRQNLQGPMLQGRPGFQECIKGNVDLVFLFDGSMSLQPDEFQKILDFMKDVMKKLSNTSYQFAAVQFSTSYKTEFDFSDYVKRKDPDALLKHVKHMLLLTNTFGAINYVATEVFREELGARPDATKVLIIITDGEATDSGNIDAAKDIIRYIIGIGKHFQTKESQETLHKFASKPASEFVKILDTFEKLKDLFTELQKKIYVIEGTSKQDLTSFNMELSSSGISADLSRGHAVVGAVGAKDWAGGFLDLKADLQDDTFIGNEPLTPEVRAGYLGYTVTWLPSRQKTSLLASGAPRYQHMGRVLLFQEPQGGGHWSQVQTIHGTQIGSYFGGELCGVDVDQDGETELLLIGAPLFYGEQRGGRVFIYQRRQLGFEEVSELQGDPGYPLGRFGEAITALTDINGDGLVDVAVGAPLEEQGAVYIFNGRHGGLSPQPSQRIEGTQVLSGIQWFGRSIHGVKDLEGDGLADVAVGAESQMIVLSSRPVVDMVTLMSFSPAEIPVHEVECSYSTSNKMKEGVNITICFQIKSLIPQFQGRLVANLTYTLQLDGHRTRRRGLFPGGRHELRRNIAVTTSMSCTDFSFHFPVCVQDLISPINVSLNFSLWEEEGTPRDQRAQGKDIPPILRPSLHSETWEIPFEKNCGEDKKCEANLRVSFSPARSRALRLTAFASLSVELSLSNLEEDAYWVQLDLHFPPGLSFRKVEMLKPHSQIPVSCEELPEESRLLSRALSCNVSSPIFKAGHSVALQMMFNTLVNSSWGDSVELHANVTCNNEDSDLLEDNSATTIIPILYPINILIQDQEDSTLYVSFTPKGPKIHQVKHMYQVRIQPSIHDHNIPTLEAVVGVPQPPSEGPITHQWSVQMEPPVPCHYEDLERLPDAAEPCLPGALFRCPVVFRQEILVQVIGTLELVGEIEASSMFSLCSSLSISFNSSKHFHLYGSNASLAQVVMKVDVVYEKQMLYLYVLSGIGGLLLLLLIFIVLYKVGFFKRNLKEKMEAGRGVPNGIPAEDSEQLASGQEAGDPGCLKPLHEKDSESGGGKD

| SMILES | IC50 [1] [µM] | IC50 (Integrin alpha-L) [µM] |
| --- | --- | --- |
| CC(C)(O)/C=C/C(=O)[C@@](C)(O)[C@H]1[C@H](O)C[C@@]2(C)[C@@H]3CC=C4[C@@H](C[C@H](O)C(=O)C4(C)C)[C@]3(C)C(=O)C[C@]12C | 1.36 |  |
| CC(C)(O)CCC(=O)[C@@](C)(O)C1[C@H](O)C[C@@]2(C)[C@@H]3CC=C4C(CC(=O)C(=O)C4(C)C)[C@]3(C)C(=O)C[C@]12C (stereo partly drawn) [Cucurbitacin L] |  | > 50 |
| CC(C)(O)C=CC(=O)[C@](C)(O)[C@H]1[C@H](O)C[C@@]2(C)[C@@H]3CC=C4[C@@H](CC(=O)C(=O)C4(C)C)[C@]3(C)C(=O)C[C@]12C [NSC-521777] |  | 0.95 |
